Results as given in the supplement of paper PMC5908809.

Assays:
[1] = tested on: normal NK cells expanded with K562-aAPC; assay: drug sensitivity score (DSS) (DSS units); higher = more sensitive; extreme values may be limits of the assay; details: 72 h; IL-2 2.5 ng/mL
Protocol: (§1)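 Drug sensitivity and resistance testing on K562-aAPC-expanded normal NK cells: 5 concentrations (10-fold steps over a 10,000-fold range), 72 h at 37 °C, viability by CellTiter-Glo normalised to DMSO and benzethonium chloride controls; DSS from the fitted curve.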

DERL-7 (IL-2 2.5 ng/mL) [2] = assay: percent inhibition of viability; higher = more inhibition; details: 72 h
NK-92 (IL-2 2.5 ng/mL) [3] = assay: as above; details: 72 h
KHYG-1 (IL-2 2.5 ng/mL) [4] = assay: as above; details: 72 h
[5] = tested on: normal primary NK cells, pool 2 (3 donors) (IL-2 2.5 ng/mL); assay: as above; details: 72 h
YT (IL-2 2.5 ng/mL) [6] = assay: as above; details: 72 h
[7] = tested on: normal primary NK cells, pool 1 (3 donors), resting (IL-2 0 ng/mL); assay: as above; details: 72 h
[8] = tested on: normal primary NK cells, pool 3 (3 donors) (IL-2 2.5 ng/mL); assay: as above; details: 72 h
KAI3 (IL-2 2.5 ng/mL) [9] = assay: as above; details: 72 h
SNK-6 (IL-2 2.5 ng/mL) [10] = assay: as above; details: 72 h
NK-YS (IL-2 2.5 ng/mL) [11] = assay: as above; details: 72 h
[12] = tested on: normal primary NK cells, pool 1 (3 donors) (IL-2 2.5 ng/mL); assay: as above; details: 72 h
NKL (IL-2 2.5 ng/mL) [13] = assay: as above; details: 72 h
IMC-1 (IL-2 20 ng/mL) [14] = assay: as above; details: 72 h
DERL-7 (IL-2 2.5 ng/mL) [15] = assay: drug sensitivity score (DSS) (DSS units); higher = more sensitive; extreme values may be limits of the assay; details: 72 h
NK-92 (IL-2 2.5 ng/mL) [16] = assay: as above; details: 72 h
KHYG-1 (IL-2 2.5 ng/mL) [17] = assay: as above; details: 72 h
[18] = tested on: normal primary NK cells, pool 2 (3 donors) (IL-2 2.5 ng/mL); assay: as above; details: 72 h
YT (IL-2 2.5 ng/mL) [19] = assay: as above; details: 72 h
[20] = tested on: normal primary NK cells, pool 1 (3 donors), resting (IL-2 0 ng/mL); assay: as above; details: 72 h
[21] = tested on: normal primary NK cells, pool 3 (3 donors) (IL-2 2.5 ng/mL); assay: as above; details: 72 h
KAI3 (IL-2 2.5 ng/mL) [22] = assay: as above; details: 72 h
SNK-6 (IL-2 2.5 ng/mL) [23] = assay: as above; details: 72 h
NK-YS (IL-2 2.5 ng/mL) [24] = assay: as above; details: 72 h
[25] = tested on: normal primary NK cells, pool 1 (3 donors) (IL-2 2.5 ng/mL); assay: as above; details: 72 h
NKL (IL-2 2.5 ng/mL) [26] = assay: as above; details: 72 h
IMC-1 (IL-2 20 ng/mL) [27] = assay: as above; details: 72 h
[28] = tested on: normal NK cells expanded with K562-aAPC; assay: percent inhibition of viability; higher = more inhibition; details: 72 h, IL-2 2.5 ng/mL
Protocol: as §1

CCn1cc(-c2ccnc3[nH]c(-c4cccc(CN(C)C)c4)cc23)c(-c2ccc(NC(=O)N(C)C)cc2)n1 (max concentration tested 1000 nM)
Details | drug sensitivity score
DERL-7 (IL-2 2.5 ng/mL) [15] | 14.7
IMC-1 (IL-2 20 ng/mL) [27] | 6.3
KAI3 (IL-2 2.5 ng/mL) [22] | 4.01
KHYG-1 (IL-2 2.5 ng/mL) [17] | 8.32
NK-92 (IL-2 2.5 ng/mL) [16] | 5.05
NK-YS (IL-2 2.5 ng/mL) [24] | 16.5
NKL (IL-2 2.5 ng/mL) [26] | 3.99
SNK-6 (IL-2 2.5 ng/mL) [23] | 18.6
YT (IL-2 2.5 ng/mL) [19] | 4.47
[1] | 8.97
[18] | 0
[20] | 0
[21] | 0
[25] | 0

percent inhibition of viability [%]
Details | 0.1 nM | 1 nM | 10 nM | 100 nM | 1000 nM
DERL-7 (IL-2 2.5 ng/mL) [2] | -1.42 | -13.7 | 13.4 | 68.1 | 56.9
IMC-1 (IL-2 20 ng/mL) [14] | -3.05 | 2.14 | 9.34 | 18.7 | 69
KAI3 (IL-2 2.5 ng/mL) [9] | 0.71 | -0.96 | 15.3 | 16.4 | 34.5
KHYG-1 (IL-2 2.5 ng/mL) [4] | -0.5 | 3.29 | 9.71 | 39.2 | 54
NK-92 (IL-2 2.5 ng/mL) [3] | -10.8 | -15.2 | -2.48 | 28.9 | 35.5
NK-YS (IL-2 2.5 ng/mL) [11] | -3.92 | -3.4 | 26.2 | 69.9 | 66.9
NKL (IL-2 2.5 ng/mL) [13] | -15 | -6.31 | 2.14 | 11.6 | 43.2
SNK-6 (IL-2 2.5 ng/mL) [10] | 20.9 | 18.6 | 35 | 71.1 | 65.4
YT (IL-2 2.5 ng/mL) [6] | 2.03 | 4.54 | 11.2 | 19.1 | 39.5
[5] | -0.19 | 2.58 | 11.4 | 2.17 | 5.89
[7] | 10.8 | -0.01 | -0.34 | -11.5 | 8.25
[8] | -9.36 | -0.39 | 7.48 | -0.31 | 7.08
[12] | 6.54 | -2.75 | 2.78 | -10.4 | -5.89
[28] | -5.72 | -6.24 | -0.83 | 49.9 | 32

CCCCC(=O)OCC(=O)[C@]1(O)Cc2c(O)c3c(c(O)c2[C@@H](O[C@H]2C[C@H](NC(=O)C(F)(F)F)[C@H](O)[C@H](C)O2)C1)C(=O)c1c(OC)cccc1C3=O [Valrubicin] (max concentration tested 5000 nM)
Details | drug sensitivity score
DERL-7 (IL-2 2.5 ng/mL) [15] | 22.9
IMC-1 (IL-2 20 ng/mL) [27] | 20.7
KAI3 (IL-2 2.5 ng/mL) [22] | 17.4
KHYG-1 (IL-2 2.5 ng/mL) [17] | 17.5
NK-92 (IL-2 2.5 ng/mL) [16] | 17.7
NK-YS (IL-2 2.5 ng/mL) [24] | 21
NKL (IL-2 2.5 ng/mL) [26] | 35.2
SNK-6 (IL-2 2.5 ng/mL) [23] | 18.6
YT (IL-2 2.5 ng/mL) [19] | 15.8
[1] | 12.2
[18] | 14.2
[20] | 16.1
[21] | 12.3
[25] | 14.7

percent inhibition of viability [%]
Details | 0.5 nM | 5 nM | 50 nM | 500 nM | 5000 nM
DERL-7 (IL-2 2.5 ng/mL) [2] | 1.97 | -4.8 | 35.6 | 99.1 | 101
IMC-1 (IL-2 20 ng/mL) [14] | -8.69 | 1.1 | 16.2 | 99.5 | 101
KAI3 (IL-2 2.5 ng/mL) [9] | -21.3 | -1.05 | 42.1 | 62.3 | 85.2
KHYG-1 (IL-2 2.5 ng/mL) [4] | -6.36 | 1.91 | 9.03 | 89.6 | 109
NK-92 (IL-2 2.5 ng/mL) [3] | -14.1 | -10.7 | 10 | 89.7 | 105
NK-YS (IL-2 2.5 ng/mL) [11] | -5.71 | 4.57 | 40.3 | 86.6 | 101
NKL (IL-2 2.5 ng/mL) [13] | -11.4 | 33.3 | 101 | 105 | 109
SNK-6 (IL-2 2.5 ng/mL) [10] | 10.3 | 28.7 | 23 | 89.2 | 86
YT (IL-2 2.5 ng/mL) [6] | -0.05 | 4.95 | 0.64 | 87.1 | 109
[5] | -13.8 | -9.19 | 12.8 | 67.3 | 95.2
[7] | -3.66 | -27.1 | -0.41 | 88.2 | 92.3
[8] | -11.9 | -6.83 | 15.7 | 53.2 | 98.4
[12] | 2.9 | -5.69 | 4.41 | 76 | 97.4
[28] | -4.09 | -1.21 | 4.69 | 55.8 | 101

C[C@@H]1CCN(C(=O)CC#N)C[C@@H]1N(C)c1ncnc2[nH]ccc12 [Tofacitinib] (max concentration tested 5000 nM)
Details | drug sensitivity score
DERL-7 (IL-2 2.5 ng/mL) [15] | 19.1
IMC-1 (IL-2 20 ng/mL) [27] | 9.8
KAI3 (IL-2 2.5 ng/mL) [22] | 20.8
KHYG-1 (IL-2 2.5 ng/mL) [17] | 25.1
NK-92 (IL-2 2.5 ng/mL) [16] | 14.5
NK-YS (IL-2 2.5 ng/mL) [24] | 13
NKL (IL-2 2.5 ng/mL) [26] | 22.6
SNK-6 (IL-2 2.5 ng/mL) [23] | 17.6
YT (IL-2 2.5 ng/mL) [19] | 8.99
[1] | 20.7
[18] | 13.7
[20] | 0
[21] | 9.81
[25] | 15.6

percent inhibition of viability [%]
Details | 0.5 nM | 5 nM | 50 nM | 500 nM | 5000 nM
DERL-7 (IL-2 2.5 ng/mL) [2] | 4.68 | 5.82 | 37.9 | 76.5 | 100
IMC-1 (IL-2 20 ng/mL) [14] | -6.11 | -7.94 | -16.8 | 34.5 | 92.1
KAI3 (IL-2 2.5 ng/mL) [9] | -5.21 | 10.5 | 45.3 | 82.7 | 85.5
KHYG-1 (IL-2 2.5 ng/mL) [4] | -4.2 | 2.4 | 59.4 | 100 | 98.6
NK-92 (IL-2 2.5 ng/mL) [3] | -2.4 | -2.12 | 17.6 | 66.9 | 80.8
NK-YS (IL-2 2.5 ng/mL) [11] | -1.06 | 4.19 | 22 | 56.2 | 67.5
NKL (IL-2 2.5 ng/mL) [13] | -18.4 | 5 | 56.6 | 78.2 | 86.8
SNK-6 (IL-2 2.5 ng/mL) [10] | -3.6 | 10 | 22.4 | 80.2 | 77.1
YT (IL-2 2.5 ng/mL) [6] | -1.31 | -0.82 | 0.63 | 46.5 | 64.1
[5] | -14 | -8.22 | 19.6 | 60.2 | 67
[7] | -2.2 | -5.26 | -18 | 7.52 | -1.29
[8] | -10.3 | -4.27 | 6.35 | 48.6 | 60.7
[12] | -7 | -4.5 | 19.9 | 68.1 | 69.8
[28] | 0.56 | -0.5 | 34.7 | 89.7 | 96.1

CNC(=O)CN1CCC(Oc2cc3c(Nc4cccc(Cl)c4F)ncnc3cc2OC)CC1 [Sapitinib] (max concentration tested 1000 nM)
Details | drug sensitivity score
DERL-7 (IL-2 2.5 ng/mL) [15] | 0
IMC-1 (IL-2 20 ng/mL) [27] | 0.17
KAI3 (IL-2 2.5 ng/mL) [22] | 0
KHYG-1 (IL-2 2.5 ng/mL) [17] | 0
NK-92 (IL-2 2.5 ng/mL) [16] | 0
NK-YS (IL-2 2.5 ng/mL) [24] | 0
NKL (IL-2 2.5 ng/mL) [26] | 0
SNK-6 (IL-2 2.5 ng/mL) [23] | 8.21
YT (IL-2 2.5 ng/mL) [19] | 0.02
[1] | 1.29
[18] | 0
[20] | 0
[21] | 0
[25] | 0

percent inhibition of viability [%]
Details | 0.1 nM | 1 nM | 10 nM | 100 nM | 1000 nM
DERL-7 (IL-2 2.5 ng/mL) [2] | 3.06 | 0.6 | -4.76 | -5 | -2.82
IMC-1 (IL-2 20 ng/mL) [14] | 0.18 | 0.99 | 5.5 | 4.61 | 15.1
KAI3 (IL-2 2.5 ng/mL) [9] | -6.57 | -1.42 | 0.58 | -5.73 | 11.3
KHYG-1 (IL-2 2.5 ng/mL) [4] | 0.69 | 2.55 | 10.2 | 2.53 | 4.41
NK-92 (IL-2 2.5 ng/mL) [3] | -3.59 | -7.59 | 7.58 | -10.8 | 6.39
NK-YS (IL-2 2.5 ng/mL) [11] | 0.21 | 0.23 | 5.94 | 0.04 | 5.37
NKL (IL-2 2.5 ng/mL) [13] | -6.69 | -1.96 | -5.01 | 0.25 | 5.26
SNK-6 (IL-2 2.5 ng/mL) [10] | 3.05 | 16.8 | 21.3 | 25.7 | 25.6
YT (IL-2 2.5 ng/mL) [6] | 1.69 | 2.8 | 8.28 | 2.39 | 14.2
[5] | -5.36 | 0.45 | 2.66 | 4.26 | 5.15
[7] | 6.72 | -12.5 | 3.2 | -20.9 | -10.5
[8] | -11.4 | -8.98 | 0.1 | -3.48 | 6.33
[12] | 3.61 | -8.96 | 0.62 | -8.22 | 4.72
[28] | 3.94 | 0.06 | -2.58 | 3.86 | 22.1
